Assay results: the supplement of paper PMC11451515

Test system: NOMO1
Experiment: cell viability relative to DMSO control; higher = less cytotoxic
Conditions: 48 h
Outline: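 Viability was expressed as a per-plate percentage of DMSO wells, with cell-free wells as background. Leukemia cells (NOMO1 or SEM at 500 cells/well, P12-Ichikawa at 1000 cells/well) were adapted for at least four passages in each medium and seeded in 1536-well plates (5 μl). Library compounds in DMSO were pin-dosed over an 11-point threefold series from 47 μM to 0.79 nM, and CellTiter-Glo One luminescence was read after 48 h at 37°C.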

[1] = HPLM + 10% dialyzed FBS, 0.000781 µM
[2] = HPLM + 10% dialyzed FBS, 0.00234 µM
[3] = HPLM + 10% dialyzed FBS, 0.00702 µM
[4] = HPLM + 10% dialyzed FBS, 0.0211 µM
[5] = HPLM + 10% dialyzed FBS, 0.0632 µM
[6] = HPLM + 10% dialyzed FBS, 0.19 µM
[7] = HPLM + 10% dialyzed FBS, 0.569 µM
[8] = HPLM + 10% dialyzed FBS, 1.71 µM
[9] = HPLM + 10% dialyzed FBS, 5.12 µM
[10] = HPLM + 10% dialyzed FBS, 15.4 µM
[11] = HPLM + 10% dialyzed FBS, 46.1 µM
[12] = RPMI 5 mM glucose + 10% FBS, 0.000781 µM
[13] = RPMI 5 mM glucose + 10% FBS, 0.00234 µM
[14] = RPMI 5 mM glucose + 10% FBS, 0.00702 µM
[15] = RPMI 5 mM glucose + 10% FBS, 0.0211 µM
[16] = RPMI 5 mM glucose + 10% FBS, 0.0632 µM
[17] = RPMI 5 mM glucose + 10% FBS, 0.19 µM
[18] = RPMI 5 mM glucose + 10% FBS, 0.569 µM
[19] = RPMI 5 mM glucose + 10% FBS, 1.71 µM
[20] = RPMI 5 mM glucose + 10% FBS, 5.12 µM
[21] = RPMI 5 mM glucose + 10% FBS, 15.4 µM
[22] = RPMI 5 mM glucose + 10% FBS, 46.1 µM
[23] = RPMI 5 mM glucose + 10% dialyzed FBS, 0.000781 µM
[24] = RPMI 5 mM glucose + 10% dialyzed FBS, 0.00234 µM
[25] = RPMI 5 mM glucose + 10% dialyzed FBS, 0.00702 µM
[26] = RPMI 5 mM glucose + 10% dialyzed FBS, 0.0211 µM
[27] = RPMI 5 mM glucose + 10% dialyzed FBS, 0.0632 µM
[28] = RPMI 5 mM glucose + 10% dialyzed FBS, 0.19 µM
[29] = RPMI 5 mM glucose + 10% dialyzed FBS, 0.569 µM
[30] = RPMI 5 mM glucose + 10% dialyzed FBS, 1.71 µM
[31] = RPMI 5 mM glucose + 10% dialyzed FBS, 5.12 µM
[32] = RPMI 5 mM glucose + 10% dialyzed FBS, 15.4 µM
[33] = RPMI 5 mM glucose + 10% dialyzed FBS, 46.1 µM

Structure (SMILES) | cell viability [1] [%] | cell viability [2] [%] | cell viability [3] [%] | cell viability [4] [%] | cell viability [5] [%] | cell viability [6] [%] | cell viability [7] [%] | cell viability [8] [%] | cell viability [9] [%] | cell viability [10] [%] | cell viability [11] [%] | cell viability [12] [%] | cell viability [13] [%] | cell viability [14] [%] | cell viability [15] [%] | cell viability [16] [%] | cell viability [17] [%] | cell viability [18] [%] | cell viability [19] [%] | cell viability [20] [%] | cell viability [21] [%] | cell viability [22] [%] | cell viability [23] [%] | cell viability [24] [%] | cell viability [25] [%] | cell viability [26] [%] | cell viability [27] [%] | cell viability [28] [%] | cell viability [29] [%] | cell viability [30] [%] | cell viability [31] [%] | cell viability [32] [%] | cell viability [33] [%]
Cc1cc(Nc2nc(N[C@@H](C)c3ccc(F)cc3)c(C#N)cc2F)n[nH]1 | 108 | 101 | 109 | 113 | 93.9 | 99.9 | 114 | 92.3 | 36.4 | 68.8 | 58.6 | 88.9 | 94.7 | 91.2 | 99.2 | 90.9 | 81.2 | 89.5 | 83 | 20.7 | 36.1 | 45.5 | 79.8 | 104 | 104 | 103 | 96.8 | 97.5 | 98.7 | 91.1 | 28.3 | 36.1 | 55
CC[C@H](NC(=O)[C@H](C)NC)C(=O)N1C[C@@H](O)C[C@H]1Cc1c(-c2[nH]c3cc(F)ccc3c2C[C@@H]2C[C@H](O)CN2C(=O)[C@H](CC)NC(=O)[C@H](C)NC)[nH]c2cc(F)ccc12 | 113 | 112 | 123 | 114 | 126 | 110 | 89.9 | 67.3 | 22.6 | 20.3 | 21.8 | – | – | – | – | – | – | – | – | – | – | – | 113 | 122 | 145 | 150 | 150 | 128 | 115 | 106 | 17.3 | 16.2 | 12.5
NCCCCNCCCN | 110 | 101 | 119 | 112 | 109 | 95.3 | 116 | 121 | 105 | 67.1 | 26.7 | 108 | 99.6 | 98.2 | 104 | 99.4 | 104 | 94.8 | 99.1 | 105 | 103 | 27.7 | 107 | 104 | 111 | 107 | 107 | 105 | 110 | 115 | 119 | 109 | 35.4
Cn1cc(/C=C2\C(=O)Nc3cccnc32)c2ccccc21 | 118 | 138 | 122 | 138 | 157 | 138 | 138 | 146 | 126 | 123 | 98.8 | 113 | 119 | 130 | 129 | 143 | 123 | 124 | 142 | 125 | 77.1 | 89.3 | 117 | 118 | 117 | 132 | 130 | 140 | 141 | 147 | 128 | 78.2 | 84.3
CN[C@@H](C)C(=O)N[C@H]1CN(C(=O)CC(C)C)CC[C@H]2CC[C@@H](C(=O)NC(c3ccccc3)c3ccccc3)N2C1=O | 96.2 | 118 | 112 | 119 | 82.9 | 85.2 | 74 | 54.5 | 17.4 | 13.9 | 11.3 | 102 | 105 | 104 | 100 | 96.9 | 91.6 | 95.8 | 37 | 10.6 | 10.2 | 6.19 | 85.3 | 98.6 | 92.6 | 94.1 | 121 | 91.8 | 97.1 | 90.3 | 17.7 | 13.9 | 9.5
C/C(O)=C(\C#N)C(=O)Nc1cc(Br)ccc1Br | 111 | 119 | 98.3 | 115 | 88.3 | 104 | 98.3 | 96.6 | 98.8 | 90.7 | 78.3 | 96.4 | 93.7 | 94.6 | 99.2 | 94 | 92.5 | 96.2 | 90 | 83 | 88 | 82.3 | 95.3 | 96 | 102 | 102 | 94.1 | 102 | 90 | 83.4 | 82.5 | 93.3 | 78
Nc1ncnc2ccccc12 | 77.8 | 100 | 100 | 35.2 | 97.8 | 87 | 88.3 | 101 | 88.4 | 105 | 105 | 84.2 | 85.9 | 87.6 | 18.6 | 97.6 | 91.4 | 101 | 95.4 | 88.3 | 90.9 | 81.7 | 88.1 | 84.1 | 79.2 | 44.1 | 81.6 | 86.7 | 89 | 89.9 | 90.6 | 98.4 | 96
CC(/C=C/C(=O)NO)=C\[C@@H](C)C(=O)c1ccc(N(C)C)cc1 | 112 | 104 | 107 | 104 | 134 | 122 | 108 | 57 | 5.04 | 4.16 | 2.85 | 89.8 | 100 | 109 | 98.8 | 93.9 | 109 | 89.2 | 59.5 | 5.72 | 3.5 | 2.44 | 111 | 120 | 122 | 114 | 108 | 115 | 95.1 | 65 | 5.26 | 5 | 2.94
C[S+](=O)([O-])c1cccc(CNc2nc(Nc3ccc4c(c3)CCC(=O)N4)ncc2C(F)(F)F)c1 | – | – | – | – | – | – | – | – | – | – | – | 99.6 | 113 | 116 | 115 | 108 | 114 | 113 | 100 | 93.3 | 91.6 | 53.9 | 107 | 109 | 114 | 129 | 99.9 | 115 | 105 | 111 | 108 | 86.1 | 58.9
CN1CCC[C@@H]1CCO[C@](C)(c1ccccc1)c1ccc(Cl)cc1 | 96 | 112 | 95.7 | 102 | 112 | 109 | 119 | 107 | 110 | 112 | 95.2 | 100 | 105 | 101 | 110 | 107 | 105 | 100 | 109 | 114 | 115 | 103 | 93.3 | 112 | 105 | 97.2 | 117 | 108 | 104 | 102 | 104 | 112 | 87.8
COc1ccc2c(c1)c(CC(=O)OCC(=O)O)c(C)n2C(=O)c1ccc(Cl)cc1 | 123 | 131 | 122 | 136 | 117 | 131 | 128 | 114 | 123 | 120 | 123 | – | – | – | – | – | – | – | – | – | – | – | 112 | 137 | 110 | 142 | 117 | 133 | 120 | 135 | 115 | 123 | 106
CC(C)c1cc(C(=O)N2Cc3ccc(CN4CCN(C)CC4)cc3C2)c(O)cc1O | 125 | 118 | 109 | 108 | 126 | 128 | 70.8 | 24 | 20.3 | 19.5 | 19.9 | 97.1 | 107 | 105 | 110 | 105 | 117 | 62.2 | 21.3 | 15.9 | 17.5 | 14.8 | 119 | 120 | 111 | 117 | 119 | 127 | 71.7 | 33.9 | 20.5 | 20.1 | 17.6
COc1cc2nc(-c3cc(F)ccc3O)nc(N[C@@H]3CNC[C@H]3C(C)(C)O)c2cc1OC | 111 | 115 | 108 | 128 | 93.5 | 122 | 124 | 109 | 109 | 89.4 | 38.4 | 107 | 105 | 108 | 103 | 101 | 115 | 109 | 122 | 114 | 106 | 49.4 | 101 | 97.8 | 100 | 118 | 106 | 112 | 112 | 96.6 | 99.6 | 88.4 | 53.7
NC(=O)C1CCCc2c1[nH]c1ccc(Cl)cc21 (stereo not given) | 111 | 129 | 121 | 117 | 123 | 117 | 105 | 87.6 | 57.4 | 24.2 | 7.26 | 117 | 121 | 123 | 105 | 105 | 123 | 115 | 109 | 81.4 | 21.4 | 9.96 | 107 | 121 | 111 | 129 | 119 | 116 | 110 | 116 | 85.5 | 24.3 | 12
C[C@]12CC[C@H]3[C@@H](CCC/4=C/C(=O)CC[C@]34C)[C@@H]1CC[C@@H]2O | 93.4 | 113 | 126 | 111 | 136 | 126 | 123 | 111 | 130 | 127 | 137 | 109 | 118 | 134 | 143 | 146 | 145 | 129 | 134 | 147 | 153 | 147 | 107 | 121 | 135 | 137 | 142 | 141 | 147 | 129 | 145 | 138 | 143
COC[C@H](c1ccc(C(F)(F)F)cc1)N1CCN(C2(C)CCN(C(=O)c3c(C)ncnc3C)CC2)C[C@H]1C.O=C(O)/C=C\C(=O)O | 85.7 | 106 | 106 | 107 | 114 | 99.8 | 111 | 70.7 | 63.5 | 62.2 | 49.9 | 87.9 | 95.7 | 101 | 97.5 | 93.8 | 103 | 91 | 83.8 | 65.1 | 56.3 | 62.8 | 83.9 | 108 | 92 | 104 | 99.8 | 105 | 101 | 91.8 | 75 | 50.9 | 51.7
